Experimental data published in paper PMC5875417 (ACS chemical neuroscience, 2015).
Several values for one entry are separate records, joined by “and”; a condition that tells them apart may be missing. Identical values can stand only once. Like-named read-outs stand apart in the source and are kept apart here.

Molecular target: human dopamine transporter (hDAT) (Homo sapiens, UniProt Q01959)
Test: cell-based
Format: cell-based
Conditions: for Relative persistent current (Ip relative to Io) after washout: as a function of concentration, Ip current remaining after washout before block with cocaine; for Depolarizing current: data not shown
[1] = Hill fit of dose-response normalized to 10 μM DA, −60 mV
[2] = ability to generate a persistent current at 10 μM and −60 mV

Chain of human dopamine transporter (hDAT) (Q01959 whole entry): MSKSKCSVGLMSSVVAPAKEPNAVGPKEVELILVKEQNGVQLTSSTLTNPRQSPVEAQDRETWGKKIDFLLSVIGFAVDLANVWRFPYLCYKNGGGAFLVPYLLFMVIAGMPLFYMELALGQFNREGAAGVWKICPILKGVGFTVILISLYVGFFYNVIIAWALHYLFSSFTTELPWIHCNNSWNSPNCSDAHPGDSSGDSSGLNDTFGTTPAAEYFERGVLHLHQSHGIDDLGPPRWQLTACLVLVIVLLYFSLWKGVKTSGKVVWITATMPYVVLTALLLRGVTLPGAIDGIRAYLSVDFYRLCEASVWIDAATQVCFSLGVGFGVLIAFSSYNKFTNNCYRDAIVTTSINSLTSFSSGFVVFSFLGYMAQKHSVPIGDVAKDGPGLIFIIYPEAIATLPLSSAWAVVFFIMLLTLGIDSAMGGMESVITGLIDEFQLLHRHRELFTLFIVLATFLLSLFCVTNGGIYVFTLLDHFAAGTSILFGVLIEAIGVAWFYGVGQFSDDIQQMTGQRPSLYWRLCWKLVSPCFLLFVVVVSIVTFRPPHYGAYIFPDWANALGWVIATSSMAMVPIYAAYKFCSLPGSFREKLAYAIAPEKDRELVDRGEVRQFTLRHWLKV

Cl.NCCc1ccc(O)cc1 [3-des-OH DA (3), 2-(4-Hydroxyphenyl)-1-aminoethane hydrochloride]
Hill coefficients: 0.91 ±0.08 | Persistent Current: no pronounced persistent current and No | EC50 (EC50): 1450 nM and 1430 nM

NCCc1cccc(O)c1 [4-des-OH DA (4), 2-(3-Hydroxyphenyl)-1-aminoethane]
Hill coefficients [1]: 1.07 ±0.09 | Persistent Current [2]: No | Persistent Current (ability to generate a persistent current at 10 μM and −60 mV, listed as 4-des-OH DA): no pronounced persistent current

COC(=O)[C@H]1[C@@H](OC(=O)c2ccccc2)C[C@@H]2CC[C@H]1N2C [Cocaine, reference compound]
Block of induced currents through hDAT: blocks the DA- and R(−)AMPH-induced initial currents

NCCc1ccc(O)c(O)c1 [DA (2), dopamine, reference compound]
Hill coefficients: 1.32 ±0.07 | Persistent Current: No | Rank order of efficacy: S(+)AMPH > DA > R(−)AMPH

C[C@@H](N)Cc1ccc(O)cc1.Cl [R(−) α-Me 3-des-OH DA (R6), R(–)-1-(4-Hydroxyphenyl)-2-aminopropane hydrochloride]
Hill coefficients [1]: 0.98 ± 0.08 | Persistent Current [2]: No | Relative persistent current (Ip relative to Io) after washout (−60 mV): much lower persistent current than S(+)AMPH (S1)

Br.C[C@@H](N)Cc1ccc(O)c(O)c1 [R(−) α-Me DA (R7), R(−)-1-(3,4-Dihydroxyphenyl)-2-aminopropane hydrobromide]
Hill coefficients [1]: 0.55 ± 0.06 | Persistent Current [2]: No

COC(=O)[C@H]1C(c2ccc(I)cc2)C[C@@H]2CC[C@H]1N2C (stereo partly shown) [RTI-55, reference compound]
Block of S(+)AMPH-induced initial peak current and persistent current (10 μM RTI-55, −60 mV): blocked

C[C@H](N)Cc1ccc(O)cc1.Cl [S(+) α-Me 3-des-OH DA (S6), S(+)-1-(4-Hydroxyphenyl)-2-aminopropane hydrochloride]
Recovery time constant T50 upon removal of compound, compared to DA (10 μM, −60 mV, normalized to 10 μM DA in same cell): no significant differences | Hill coefficients [1]: 0.49 ± 0.05 | Persistent Current [2]: No | Relative persistent current (Ip relative to Io) after washout (−60 mV): much lower persistent current than S(+)AMPH (S1)

Br.C[C@H](N)Cc1ccc(O)c(O)c1 [S(+) α-Me DA (S7), S(+)-1-(3,4-Dihydroxyphenyl)-2-aminopropane hydrobromide]
Hill coefficients [1]: 0.71 ± 0.11 | Persistent Current [2]: No

COc1ccc(CCN)cc1 [compound 8, 2-(4-Methoxyphenyl)-1-aminoethane]
Depolarizing current (10 μM): comparatively small depolarizing currents

COc1cccc(CCN)c1 [compound 9, 2-(3-methoxyphenyl)-1-aminoethane]
Depolarizing current (10 μM): comparatively small depolarizing currents

NCCc1ccccc1 [β-PEA (5), 2-phenyl-1-aminoethane, reference compound]
Persistent Current (100 μM, −60 mV): pronounced persistent current | Hill coefficients [1]: 1.06 ± 0.16 | Persistent Current [2]: Yes | Relative persistent current (Ip relative to Io) after washout (−60 mV): much lower persistent current than S(+)AMPH (S1)
